Tests used:
[1] = saturation concentration of acetylsalicylic acid in the solvent mixture; format: physicochemical; details: solvent mixture: propylene glycol about 10 percent by volume, glycerine about 2 percent by volume, balance isopropyl alcohol/water with isopropyl alcohol about 70 percent by volume
[2] = cited from earlier work

Structure (SMILES): CC(=O)Oc1ccccc1C(=O)O [acetylsalicylic acid]
- saturation concentration of the acetylsalicylic acid in this solvent mixture [1]: about 18 percent by weight per unit volume
- solubility in water or water based substances [2]: virtually insoluble
